ChEMBL document CHEMBL1157530, “Cytotoxic and antibacterial sesquiterpenes from Thespesia populnea” (J Nat Prod, 2008)
In brackets after ≈: the same amount, converted by molar mass. Each block holds one compound with its values, some of them ahead of it.

Experiments:
[1] = tested on: HeLa; assay: Cytotoxicity against human HeLa cells by SRB assay; type: functional, cell-based
[2] = tested on: Bacillus subtilis; assay: Antibacterial activity against Bacillus subtilis; type: functional
[3] = tested on: KB; assay: Cytotoxicity against human KB cells by SRB assay; type: functional, cell-based
[4] = tested on: HT-29; assay: Cytotoxicity against human HT29 cells by SRB assay; type: functional, cell-based
[5] = tested on: MCF7; assay: Cytotoxicity against human MCF7 cells by SRB assay; type: functional, cell-based
[6] = tested on: Staphylococcus aureus; assay: Antibacterial activity against Staphylococcus aureus TISTR517; type: functional
[7] = tested on: Enterococcus faecalis; assay: Antibacterial activity against Enterococcus faecalis; type: functional

MIC [2]: 4.69 µg/mL (≈ 19.4 µM)
Structure (SMILES): CC1=C2OCC(C)c3ccc(C)c(c32)C(=O)C1=O (configuration not stated) [MANSONONE E]
IC50 [1]: 0.55 µg/mL (≈ 2.27 µM)
IC50 [3]: 0.4 µg/mL (≈ 1.65 µM)
IC50 [4]: 0.18 µg/mL (≈ 0.743 µM)
IC50 [5]: 0.05 µg/mL (≈ 0.206 µM)

MIC [2]: 4.69 µg/mL (≈ 16.5 µM)
MIC [6]: > 10 µg/mL
Structure (SMILES): CC1=Cc2c(c(C)cc3c2C(C)COC3(C)C)C(=O)C1=O (configuration not stated) [POPULENE C]
IC50 [1]: 3.4 µg/mL (≈ 12 µM)
IC50 [3]: 3 µg/mL (≈ 10.6 µM)
IC50 [4]: 2.9 µg/mL (≈ 10.2 µM)
IC50 [5]: 2.35 µg/mL (≈ 8.26 µM)

MIC [2]: 4.69 µg/mL (≈ 16.3 µM)
Structure (SMILES): Cc1cc2c(c(O)c1O)[C@H](C)CC1=C2[C@@H](C)COC1(C)C [POPULENE D]
IC50 [1]: 0.95 µg/mL (≈ 3.29 µM)
IC50 [3]: 3.1 µg/mL (≈ 10.7 µM)
IC50 [4]: 2.37 µg/mL (≈ 8.22 µM)
IC50 [5]: 1.85 µg/mL (≈ 6.41 µM)

More lines, now with the values behind:

Structure (SMILES): CC1=Cc2c(c(C)cc3c2C(C)CO3)C(=O)C1=O (configuration not stated) [MANSONONE D]
IC50 [1]: 2.8 µg/mL (≈ 11.6 µM)
MIC [2]: 2.34 µg/mL (≈ 9.66 µM)
IC50 [3]: 4.9 µg/mL (≈ 20.2 µM)
IC50 [4]: > 5 µg/mL
IC50 [5]: 0.8 µg/mL (≈ 3.3 µM)

Structure (SMILES): CC1=CC2=C(C(C)C)C(=O)CC(C)C2=C(O)C1=O (configuration not stated) [MANSONONE S]
IC50 [1]: > 5 µg/mL
IC50 [3]: > 5 µg/mL
IC50 [4]: > 5 µg/mL
IC50 [5]: > 5 µg/mL

Structure (SMILES): Cc1cc2c(C(C)C)c(O)c(O)c(C=O)c2c(O)c1-c1c(C)cc2c(C(C)C)c(O)c(O)c(C=O)c2c1O [GOSSYPOL]
IC50 [1]: 0.08 µg/mL (≈ 0.154 µM)
MIC [2]: 1.17 µg/mL (≈ 2.26 µM)
IC50 [3]: 0.04 µg/mL (≈ 0.0771 µM)
IC50 [4]: > 5 µg/mL
MIC [6]: 1.17 µg/mL (≈ 2.26 µM)

Structure (SMILES): Cc1cc2c(C(C)C)ccc(C)c2cc1O
IC50 [1]: > 5 µg/mL
MIC [2]: 0.59 µg/mL (≈ 2.75 µM)
IC50 [3]: > 5 µg/mL
IC50 [4]: > 5 µg/mL
IC50 [5]: > 5 µg/mL

Structure (SMILES): COc1c(O)c(C=O)c2c(O)c(-c3c(C)cc4c(C(C)C)c(OC)c(O)c(C=O)c4c3O)c(C)cc2c1C(C)C [6,6'-METHOXYGOSSYPOL]
IC50 [1]: > 5 µg/mL
MIC [2]: 2.34 µg/mL (≈ 4.28 µM)
IC50 [3]: > 5 µg/mL
IC50 [4]: 3 µg/mL (≈ 5.49 µM)
MIC [7]: 1.17 µg/mL (≈ 2.14 µM)
MIC [6]: 4.69 µg/mL (≈ 8.58 µM)
IC50 [5]: 4 µg/mL (≈ 7.32 µM)
